Where a SMILES comes first, the peptide text is derived from it. [ ]: non-standard residue; d: D form. pGlu = O=C1CC[C@@H](C(=O)O)N1; Thz = O=C(O)[C@@H]1CSCN1
How the values were obtained:
[1] = target: T1, Alpha-2A adrenergic receptor (Homo sapiens, UniProt P08913); type: functional, cell-based
T1 sequence (P08913 whole entry): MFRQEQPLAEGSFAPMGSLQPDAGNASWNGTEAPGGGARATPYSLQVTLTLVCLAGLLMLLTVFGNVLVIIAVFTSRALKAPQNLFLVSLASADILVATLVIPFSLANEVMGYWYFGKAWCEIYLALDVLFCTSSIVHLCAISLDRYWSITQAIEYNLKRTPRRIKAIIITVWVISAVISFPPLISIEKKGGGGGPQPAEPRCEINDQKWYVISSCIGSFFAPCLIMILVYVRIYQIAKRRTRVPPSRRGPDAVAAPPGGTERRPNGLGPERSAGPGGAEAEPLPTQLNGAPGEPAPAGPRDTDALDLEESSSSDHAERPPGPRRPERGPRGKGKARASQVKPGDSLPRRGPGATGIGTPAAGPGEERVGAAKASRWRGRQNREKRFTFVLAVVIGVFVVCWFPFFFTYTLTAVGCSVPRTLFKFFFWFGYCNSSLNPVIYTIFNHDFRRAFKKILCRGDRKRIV

[2] = target: T2, B2 bradykinin receptor (Homo sapiens, UniProt P30411)
T2 sequence (P30411 whole entry): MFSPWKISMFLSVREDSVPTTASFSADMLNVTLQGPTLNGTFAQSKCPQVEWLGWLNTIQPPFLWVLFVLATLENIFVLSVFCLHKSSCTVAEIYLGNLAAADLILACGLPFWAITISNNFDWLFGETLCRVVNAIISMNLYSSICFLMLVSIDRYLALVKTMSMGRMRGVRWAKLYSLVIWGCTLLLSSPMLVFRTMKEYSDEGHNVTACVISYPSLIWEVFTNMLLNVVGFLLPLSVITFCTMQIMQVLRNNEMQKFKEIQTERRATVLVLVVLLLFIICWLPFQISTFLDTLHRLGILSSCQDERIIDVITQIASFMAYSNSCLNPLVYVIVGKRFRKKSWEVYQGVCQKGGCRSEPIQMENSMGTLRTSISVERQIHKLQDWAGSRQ

[3] = target: T3, Gastrin/cholecystokinin type B receptor (Homo sapiens, UniProt P32239)
T3 sequence (P32239 whole entry): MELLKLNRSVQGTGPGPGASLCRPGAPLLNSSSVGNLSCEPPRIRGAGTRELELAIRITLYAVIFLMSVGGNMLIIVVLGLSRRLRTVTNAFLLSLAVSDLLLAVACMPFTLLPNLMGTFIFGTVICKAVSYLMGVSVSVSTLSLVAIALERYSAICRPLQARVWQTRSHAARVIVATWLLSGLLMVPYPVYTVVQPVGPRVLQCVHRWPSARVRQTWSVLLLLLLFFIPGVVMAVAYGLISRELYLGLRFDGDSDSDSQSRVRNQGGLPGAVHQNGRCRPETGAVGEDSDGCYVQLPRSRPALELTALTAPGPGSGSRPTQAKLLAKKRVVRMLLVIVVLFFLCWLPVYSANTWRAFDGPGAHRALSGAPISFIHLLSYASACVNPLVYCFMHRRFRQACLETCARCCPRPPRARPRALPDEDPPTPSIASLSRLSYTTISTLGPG

[4] = target: D(1A) dopamine receptor (Homo sapiens, UniProt P21728); type: functional, cell-based
Sequence of D(1A) dopamine receptor (P21728 whole entry): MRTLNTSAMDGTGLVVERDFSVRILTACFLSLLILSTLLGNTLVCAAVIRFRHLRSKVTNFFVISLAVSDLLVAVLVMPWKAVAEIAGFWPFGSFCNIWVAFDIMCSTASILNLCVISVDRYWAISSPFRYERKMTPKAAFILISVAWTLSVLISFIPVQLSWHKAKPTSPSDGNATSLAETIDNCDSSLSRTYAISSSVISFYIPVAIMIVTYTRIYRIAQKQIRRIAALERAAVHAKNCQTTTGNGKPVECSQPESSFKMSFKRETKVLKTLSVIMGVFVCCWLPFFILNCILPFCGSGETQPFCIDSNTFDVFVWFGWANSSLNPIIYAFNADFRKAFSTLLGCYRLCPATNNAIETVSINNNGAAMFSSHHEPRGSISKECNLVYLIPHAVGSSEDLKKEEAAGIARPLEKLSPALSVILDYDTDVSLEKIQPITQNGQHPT

[5] = target: T4, 5-hydroxytryptamine receptor 1A (Homo sapiens, UniProt P08908); type: functional, cell-based
T4 sequence (P08908 whole entry): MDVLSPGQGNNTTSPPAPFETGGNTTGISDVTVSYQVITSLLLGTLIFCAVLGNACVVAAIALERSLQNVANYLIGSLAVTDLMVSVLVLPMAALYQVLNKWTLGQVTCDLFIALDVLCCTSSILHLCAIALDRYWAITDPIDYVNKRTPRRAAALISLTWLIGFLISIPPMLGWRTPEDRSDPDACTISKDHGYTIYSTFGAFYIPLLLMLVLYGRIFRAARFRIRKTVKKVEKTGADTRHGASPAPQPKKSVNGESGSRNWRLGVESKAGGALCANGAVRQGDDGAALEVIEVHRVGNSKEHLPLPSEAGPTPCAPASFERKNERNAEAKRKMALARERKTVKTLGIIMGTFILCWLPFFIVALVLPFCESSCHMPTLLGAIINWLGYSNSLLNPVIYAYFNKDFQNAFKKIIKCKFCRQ

[6] = target: 5-hydroxytryptamine receptor 2B (Homo sapiens, UniProt P41595); type: functional, cell-based
Sequence of 5-hydroxytryptamine receptor 2B (P41595 whole entry): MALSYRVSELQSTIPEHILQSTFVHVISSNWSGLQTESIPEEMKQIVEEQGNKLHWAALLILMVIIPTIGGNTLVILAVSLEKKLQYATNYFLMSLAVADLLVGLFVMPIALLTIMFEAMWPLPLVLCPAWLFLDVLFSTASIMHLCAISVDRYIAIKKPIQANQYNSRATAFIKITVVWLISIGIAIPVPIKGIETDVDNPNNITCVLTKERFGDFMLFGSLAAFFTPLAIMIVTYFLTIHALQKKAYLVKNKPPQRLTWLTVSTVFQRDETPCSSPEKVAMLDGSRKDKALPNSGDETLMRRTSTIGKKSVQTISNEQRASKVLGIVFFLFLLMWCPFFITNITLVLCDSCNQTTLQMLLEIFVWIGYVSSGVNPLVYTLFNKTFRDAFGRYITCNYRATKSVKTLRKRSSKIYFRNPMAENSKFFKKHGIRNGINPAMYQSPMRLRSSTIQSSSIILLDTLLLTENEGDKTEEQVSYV

[7] = target: T5, 5-hydroxytryptamine receptor 3A (Homo sapiens, UniProt P46098); type: functional
T5 sequence (P46098 whole entry): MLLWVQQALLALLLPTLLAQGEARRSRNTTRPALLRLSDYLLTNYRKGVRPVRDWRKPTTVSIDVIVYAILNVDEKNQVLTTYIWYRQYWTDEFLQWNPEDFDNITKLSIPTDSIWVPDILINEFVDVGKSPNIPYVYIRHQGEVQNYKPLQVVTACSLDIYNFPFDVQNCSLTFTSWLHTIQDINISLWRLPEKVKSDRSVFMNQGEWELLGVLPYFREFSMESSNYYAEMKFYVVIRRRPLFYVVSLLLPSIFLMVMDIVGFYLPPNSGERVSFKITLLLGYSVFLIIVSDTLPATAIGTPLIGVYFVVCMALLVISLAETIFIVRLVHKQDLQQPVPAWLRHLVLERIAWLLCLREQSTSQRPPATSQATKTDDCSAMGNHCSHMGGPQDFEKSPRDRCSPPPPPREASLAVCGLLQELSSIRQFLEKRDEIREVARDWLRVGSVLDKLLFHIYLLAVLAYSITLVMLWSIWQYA

[8] = target: Delta-type opioid receptor (Homo sapiens, UniProt P41143)
Sequence of Delta-type opioid receptor (P41143 whole entry): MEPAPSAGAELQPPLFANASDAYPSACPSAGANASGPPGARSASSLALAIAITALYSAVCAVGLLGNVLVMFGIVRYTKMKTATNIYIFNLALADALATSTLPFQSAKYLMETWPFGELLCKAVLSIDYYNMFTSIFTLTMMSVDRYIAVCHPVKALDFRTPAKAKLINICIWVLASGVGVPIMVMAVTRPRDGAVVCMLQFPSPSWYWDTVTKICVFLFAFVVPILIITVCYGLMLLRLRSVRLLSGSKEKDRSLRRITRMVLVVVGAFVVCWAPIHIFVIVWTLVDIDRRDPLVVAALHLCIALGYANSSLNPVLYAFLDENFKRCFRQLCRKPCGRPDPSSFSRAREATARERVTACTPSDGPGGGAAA

[9] = target: Sodium-dependent noradrenaline transporter (Homo sapiens, UniProt P23975)
Sequence of Sodium-dependent noradrenaline transporter (P23975 whole entry): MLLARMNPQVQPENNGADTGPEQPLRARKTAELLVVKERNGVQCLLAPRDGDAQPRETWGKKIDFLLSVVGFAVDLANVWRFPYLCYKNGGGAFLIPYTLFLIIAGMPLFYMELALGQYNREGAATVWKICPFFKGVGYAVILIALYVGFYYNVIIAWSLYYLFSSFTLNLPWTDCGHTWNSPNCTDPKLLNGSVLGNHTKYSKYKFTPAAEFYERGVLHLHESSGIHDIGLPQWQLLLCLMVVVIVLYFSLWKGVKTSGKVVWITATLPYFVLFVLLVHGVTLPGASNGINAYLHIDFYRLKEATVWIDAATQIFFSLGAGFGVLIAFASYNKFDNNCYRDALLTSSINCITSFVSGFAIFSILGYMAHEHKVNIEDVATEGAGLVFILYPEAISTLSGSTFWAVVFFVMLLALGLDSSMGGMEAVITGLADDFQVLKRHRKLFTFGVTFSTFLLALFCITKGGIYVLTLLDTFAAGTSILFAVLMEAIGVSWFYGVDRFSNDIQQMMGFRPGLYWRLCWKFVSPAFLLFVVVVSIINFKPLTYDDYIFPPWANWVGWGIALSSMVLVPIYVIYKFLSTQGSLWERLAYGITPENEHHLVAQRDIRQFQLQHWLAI
Further: assay procedure not described here.

SMILES	AC50 [1] [µM]	AC50 [2] [µM]	AC50 [3] [µM]	AC50 [4] [µM]	AC50 [5] [µM]	AC50 [6] [µM]	AC50 [7] [µM]	AC50 [8] [µM]	AC50 [9] [µM]
Clc1ccc(CCC(Cn2ccnc2)Sc2c(Cl)cccc2Cl)cc1 (stereo not drawn) [BUTOCONAZOLE]	> 30	> 30	> 30	> 30	> 30	> 30	> 30	> 30	> 30
CO/N=C(\C(=O)N[C@@H]1C(=O)N2C(C(=O)O)=CCS[C@H]12)c1csc(N)n1 [CEFTIZOXIME]	> 30	> 10	> 30	> 30	> 30	> 30	–	–	> 30
O=c1c(O)c(-c2ccc(O)c(O)c2)oc2cc(O)cc(O)c12 [QUERCETIN]	> 30	> 30	> 30	> 10	> 30	> 30	> 30	> 30	–
O=c1[nH]c2ccccc2n1CCCN1CCN(C(c2ccccc2)c2ccccc2)CC1 [OXATOMIDE]	> 30	> 30	> 30	> 30	> 30	> 30	> 30	> 30	3.2
CCC(=O)O[C@](Cc1ccccc1)(c1ccccc1)[C@H](C)CN(C)C [PROPOXYPHENE]	> 10	> 30	> 30	> 10	> 10	> 10	> 30	11	> 10
Cc1ccnc2c1NC(=O)c1cccnc1N2C1CC1 [NEVIRAPINE]	> 10	> 30	> 30	> 10	> 10	> 10	> 10	> 10	> 10
O=C1CC[C@@H](C(=O)N2CSC[C@H]2C(=O)O)N1 [PIDOTIMOD] ([pGlu]-[Thz]-OH)	> 30	> 30	> 30	> 30	> 30	> 30	> 30	> 30	> 30
CCOC(=O)c1ncn2c1CN(C)C(=O)c1cc(F)ccc1-2 [FLUMAZENIL]	> 30	> 30	> 30	> 30	> 30	> 30	> 30	> 30	> 30
Cc1cc(=O)n(-c2ccccc2)n1C [ANTIPYRINE]	> 10	> 30	> 30	> 10	> 30	> 10	> 30	> 30	> 30
CCOC(=O)c1ccc(C#Cc2ccc3c(c2)C(C)(C)CCS3)nc1 [TAZAROTENE]	> 10	> 30	> 30	> 30	> 30	> 10	> 30	> 30	> 30
COc1ccc(CN2CCN(C(c3ccc(F)cc3)c3ccc(F)cc3)CC2)c(OC)c1OC [LOMERIZINE]	> 30	> 30	> 30	> 30	> 30	> 30	> 30	> 30	18
Oc1ccc(CCNCCCCCCNCCc2ccccc2)cc1O [DOPEXAMINE]	> 30	> 30	> 30	23	> 30	> 30	> 30	> 30	0.4
CCN1CCCC1CNC(=O)c1cc(S(=O)(=O)CC)ccc1OC (stereo not drawn) [SULTOPRIDE]	> 30	> 30	> 30	> 30	> 30	> 30	> 30	> 30	> 30
COc1cc(C(=O)NC2CCCNC2)cc(OC)c1OC (stereo not drawn) [TROXIPIDE]	> 30	> 30	> 30	> 30	> 30	> 30	> 30	> 30	> 30
CC(C(=O)O)c1ccc2c(c1)CC(=O)c1ccccc1S2 (stereo not drawn) [ZALTOPROFEN]	> 30	> 30	> 30	> 30	> 30	> 30	> 30	> 30	> 30
NNC(=O)c1ccncc1 [ISONIAZID]	> 30	> 30	> 30	> 30	> 30	> 30	> 30	> 30	> 30
CCc1cc2c(s1)-n1c(C)nnc1CN=C2c1ccccc1Cl [ETIZOLAM]	> 30	> 30	> 30	> 30	> 30	> 30	> 30	> 30	> 30
CCCN1CCCC[C@H]1C(=O)Nc1c(C)cccc1C [ROPIVACAINE]	> 30	> 30	> 30	> 30	> 30	> 30	> 30	> 30	> 30
Oc1cc(O)c(Cl)cn1	> 30	> 30	> 30	> 30	> 30	> 30	> 30	> 30	> 30
CC(C)NC[C@H](O)COc1ccc(CC(N)=O)cc1 [ESATENOLOL]	> 10	> 30	> 30	–	> 10	–	> 10	> 10	> 10
CCOC(=O)[C@@H](N)Cc1ccc(-c2cc(O[C@H](c3ccc(Cl)cc3-n3ccc(C)n3)C(F)(F)F)nc(N)n2)cc1 [TELOTRISTAT ETHYL]	> 30	> 30	> 30	> 30	–	> 30	24	> 30	16
